From patent US11058115B2, “Heterocycle derivatives as pesticides” (Bayer Aktiengesellschaft, priority 2017, dated 2021)

Columns and labels:
Type in all cases: in vivo
[1] = test system: Ctenocephalides felis; assay: Ctenocephalides felis in vitro contact test with adult cat fleas; conditions: application rate 5 μg/cm^2 (=500 g/ha), after 48 h
Protocol: Ctenocephalides felis—In Vitro Contact Tests with Adult Cat Fleas For the coating of the test tubes, 9 mg of active ingredient are first dissolved in 1 ml of acetone p.a. and then diluted to the desired concentration with acetone p.a. 250 μl of the solution are distributed homogeneously on the inner walls and the base of a 25 ml glass tube by turning and rocking on an orbital shaker (rocking rotation at 30 rpm for 2 h). With 900 ppm of active ingredient solution and internal surface area 44.7 cm^2, given homogeneous distribution, an area-based dose of 5 μg/cm^2 is achieved. After the solvent has evaporated off, the tubes are populated with 5-10 adult cat fleas (Ctenocephalides felis), sealed with a perforated plastic lid and incubated in a horizontal position at room temperature and ambient humidity. After 48 h, efficacy is determined. To this end, the tubes are stood upright and the fleas are knocked to the base of the tube. Fleas which remain motionless at the base or move in an uncoordinated manner are considered to be dead or moribund. […] 100% efficacy means that all the fleas were dead or moribund. 0% efficacy means that no fleas were harmed.

[2] = test system: Ctenocephalides felis; assay: Ctenocephalides felis oral test; conditions: application rate 100 ppm in citrated cattle blood, adult cat fleas, after 2 days
Protocol: Ctenocephalides felis—Oral Test Solvent: dimethyl sulfoxide To produce a suitable active ingredient formulation, 10 mg of active ingredient are mixed with 0.5 ml of dimethyl sulfoxide. Dilution with citrated cattle blood gives the desired concentration. About 20 unfed adult cat fleas (Ctenocephalides felis) are placed into a chamber which is closed at the top and bottom with gauze. A metal cylinder whose bottom end is closed with parafilm is placed onto the chamber. The cylinder contains the blood/active ingredient formulation, which can be imbibed by the fleas through the parafilm membrane. After 2 days, the kill in % is determined. 100% means that all of the fleas have been killed; 0% means that none of the fleas have been killed.

[3] = test system: Lucilia cuprina; assay: Lucilia cuprina test; conditions: application rate 100 ppm, L1 larvae, after 2 days
Protocol: Lucilia cuprina Test Solvent: dimethyl sulfoxide To produce a suitable active ingredient formulation, 10 mg of active ingredient are mixed with 0.5 ml of dimethyl sulfoxide, and the concentrate is diluted with water to the desired concentration. About 20 L1 larvae of the Australian sheep blowfly (Lucilia cuprina) are transferred into a test vessel containing minced horsemeat and the active ingredient formulation of the desired concentration. After 2 days, the kill in % is determined. 100% means that all the larvae have been killed; 0% means that no larvae have been killed.

[4] = test system: Musca domestica; assay: Musca domestica test; conditions: adult houseflies, after 2 days
Protocol: Musca domestica Test Solvent: dimethyl sulfoxide To produce a suitable active ingredient formulation, 10 mg of active ingredient are mixed with 0.5 ml of dimethyl sulfoxide, and the concentrate is diluted with water to the desired concentration. Vessels containing a sponge treated with sugar solution and the active ingredient formulation of the desired concentration are populated with 10 adult houseflies (Musca domestica). After 2 days, the kill in % is determined. 100% means that all of the flies have been killed; 0% means that none of the flies have been killed.

[5] = test system: Myzus persicae; assay: Myzus persicae oral test; conditions: 120 h, after 5 days, read-out: efficacy in %; for pest or weed control at 4 ppm: application rate 4 ppm; for pest or weed control at 20 ppm: application rate 20 ppm; for pest or weed control at 0.8 ppm: application rate 0.8 ppm
Protocol: Myzus persicae—Oral Test [table] To produce a suitable active ingredient formulation, 1 part by weight of active ingredient is dissolved with the stated parts by weight of solvent and made up to the desired concentration with water. 50 μl of the active ingredient formulationare transferred into microtitre plates and made up to a final volume of 200 μl with 150 μl of IPL41 insect medium (33% +15% sugar). Subsequently, the plates are sealed with parafilm, which a mixed population of green peach aphids (Myzus persicae) within a second microtitre plate is able to puncture and imbibe the solution. After 5 days, the efficacy in % is determined. 100% means that all the aphids have been killed; 0% means that no aphids have been killed.

[6] = test system: Phaedon cochleariae; assay: Phaedon cochleariae spray test; conditions: foliar, 168 h, application rate 100 g/ha, spray on Chinese cabbage leaf discs, larvae, after 7 days, read-out: efficacy in %
Protocol: Phaedon cochleariae—Spray Test
(§1) To produce a suitable active ingredient formulation, 1 part by weight of active ingredient is dissolved with the specified parts by weight of solvent and made up to the desired concentration with water containing an emulsifier concentration of 1000 ppm. To produce further test concentrations, the formulation is diluted with emulsifier-containing water.
Discs of Chinese cabbage leaves (Brassica pekinensis) are sprayed with an active ingredient formulation of the desired concentration and, after drying, populated with larvae of the mustard beetle (Phaedon cochleariae).
After 7 days, the efficacy in % is determined. 100% means that all the beetle larvae have been killed; 0% means that no beetle larvae have been killed.

[7] = test system: Tetranychus urticae; assay: Tetranychus urticae spray test, OP-resistant; conditions: spray on bean leaf discs, all stages, after 6 days
Protocol: Tetranychus urticae—Spray Test, OP-Resistant
as §1
Discs of bean leaves (Phaseolus vulgaris) infested with all stages of the greenhouse red spider mite (Tetranychus urticae) are sprayed with an active ingredient formulation of the desired concentration.
After 6 days, the efficacy in % is determined. 100% means that all the spider mites have been killed; 0% means that no spider mites have been killed.

[8] = test system: Rhipicephalus sanguineus; assay: Rhipicephalus sanguineus in vitro contact test with adult brown dog ticks; conditions: application rate 5 μg/cm^2 (=500 g/ha), after 48 h
Protocol: Rhipicephalus sanguineus—In Vitro Contact Test with Adult Brown Dog Ticks For the coating of the test tubes, 9 mg of active ingredient are first dissolved in 1 ml of acetone p.a. and then diluted to the desired concentration with acetone p.a. 250 µl of the solution are distributed homogeneously on the inner walls and the base of a 25 ml glass tube by turning and rocking on an orbital shaker (rocking rotation at 30 rpm for 2 h). With 900 ppm of active ingredient solution and internal surface area 44.7 cm^2, given homogeneous distribution, an area-based dose of 5 μg/cm^2 is achieved. After the solvent has evaporated off, the tubes are populated with 5-10 adult dog ticks (Rhipicephalus sanguineus), sealed with a perforated plastic lid and incubated in a horizontal position in darkness at room temperature and ambient humidity. After 48 h, efficacy is determined. To this end, the ticks are knocked to the base of the tube and incubated on a hotplate at 45-50° C. for a maximum 5 min. Ticks which remain motionless at the base or move in such an uncoordinated manner that they cannot attempt to escape from the heat by climbing upward are considered to be dead or moribund. […] 100% efficacy means that all the ticks were dead or moribund. 0% efficacy means that no ticks were harmed.

[9] = test system: Myzus persicae; assay: Myzus persicae spray test; conditions: foliar, 120 h, application rate 100 g/ha, spray on Chinese cabbage leaf discs, after 5 days, read-out: efficacy in %
Protocol: Myzus persicae—Spray Test [table] To produce a suitable active ingredient formulation, 1 part by weight of active ingredient is dissolved with the specified parts by weight of solvent and made up to the desired concentration with water containing an emulsifier concentration of 1000 ppm. To produce further test concentrations, the formulation is diluted with emulsifier-containing water. Discs of Chinese cabbage leaves (Brassica pekinensis) infested by all stages of the green peach aphid (Myzus persicae) are sprayed with an active ingredient formulation of the desired concentration. After 5 days, the efficacy in % is determined. 100% means that all the aphids have been killed; 0% means that no aphids have been killed.

[10] = test system: Spodoptera frugiperda; assay: Spodoptera frugiperda spray test; conditions: application rate 100 g/ha, spray on maize leaf discs, caterpillars, after 7 days
Protocol: Spodoptera frugiperda—Spray Test [table] To produce a suitable active ingredient formulation, 1 part by weight of active ingredient is dissolved with the specified parts by weight of solvent and made up to the desired concentration with water containing an emulsifier concentration of 1000 ppm. To produce further test concentrations, the formulation is diluted with emulsifier-containing water. Leaf discs of maize (Zea mays) are sprayed with an active ingredient formulation of the desired concentration and, after drying, populated with caterpillars of the armyworm (Spodoptera frugiperda). After 7 days, the efficacy in % is determined. 100% means that all the caterpillars have been killed; 0% means that no caterpillar has been killed.

Structure (SMILES)	efficacy (fleas dead or moribund) [1]	efficacy (kill in %) [2]	efficacy (kill in %) [3]	efficacy (kill in %) ([4]; application rate 20 ppm)	efficacy (kill in %) ([4]; application rate 100 ppm)	pest or weed control at 4 ppm [5]	pest or weed control at 20 ppm [5]	pest or weed control at 100 g/ha [6]	efficacy in % ([7]; application rate 100 g/ha)	efficacy (ticks dead or moribund) [8]	pest or weed control at 0.8 ppm [5]	pest or weed control at 100 g/ha [9]	efficacy in % [10]	efficacy in % ([7]; application rate 20 g/ha)
CCSc1c(-c2nc3cc(C(F)(F)F)cnc3n2C)nc(C2CC2)n1C [Example I-1, 2-[2-Cyclopropyl-5-(ethylsulfanyl)-1-methyl-1H-imidazol-4-yl]-3-methyl-6-(trifluoromethyl)-3H-imidazo[4,5-b]pyridine]	100%	90%	100%	100%	100%	100%	100%	100%	100%					
CCS(=O)(=O)c1c(-c2nc3cc(C(F)(F)F)cnc3n2C)nc(C2CC2)n1C [Example I-2, 2-[2-Cyclopropyl-5-(ethylsulfonyl)-1-methyl-1H-imidazol-4-yl]-3-methyl-6-(trifluoromethyl)-3H-imidazo[4,5-b]pyridine]	100%	100%	100%	90%	80%	100%	100%	100%		100%	100%	90%	100%	90%
CCS(=O)(=O)c1c(-c2nc3cc(OC(F)(F)F)cnc3n2C)nc(C2CC2)n1C [Example I-6]						100%		100%	90%		100%	100%	100%	
CCS(=O)(=O)c1c(-c2nc3cc([S+]([O-])C(F)(F)F)cnc3n2C)nc(C2CC2)n1C (stereo not shown) [Example I-7]		100%	100%	80%				100%			100%	90%	100%	
CCS(=O)(=O)c1c(-c2nc3cc(S(=O)(=O)C(F)(F)F)cnc3n2C)nc(C2CC2)n1C [Example I-8]		100%	100%	80%		100%		100%			100%		100%	
CCS(=O)(=O)c1c(-c2nc3cc(C(F)(F)F)ncc3n2C)nc(C2CC2)n1C [Example I-9]						100%		100%			100%			
CCn1c(C2CC2)nc(-c2nc3cc(C(F)(F)F)ncc3n2C)c1S(=O)(=O)CC [Example I-10]						100%		100%			100%		83%	
CCS(=O)(=O)c1c(-c2nc3cc(C(F)(F)F)ncc3n2C)nc(C2CC2)n1C(C)C [Example I-11]		90%	100%			100%		100%			100%	90%		
CCS(=O)(=O)c1c(-c2nc3cc(SC(F)(F)F)cnc3n2C)nc(C2CC2)n1C [Example I-12]						100%		100%			100%	100%	83%	
CCS(=O)(=O)c1c(-c2nc3cc(C(F)(F)F)ncc3n2C)nc(C2CCCCC2)n1C [Example I-13, 2-[2-Cyclohexyl-5-(ethylsulfonyl)-1-methyl-1H-imidazol-4-yl]-3-methyl-6-(trifluoromethyl)-3H-imidazo[4,5-c]pyridine]						100%								
CCS(=O)(=O)c1c(-c2nc3cc(C(F)(F)F)ncc3n2C)nc([C@H]2CC[C@@H](C(F)(F)F)CC2)n1C [Example I-15]						100%		100%			90%	90%		
CCS(=O)(=O)c1c(-c2nc3cc(C(F)(F)F)ncc3n2C)nc([C@H]2CC[C@@H](C)CC2)n1C [Example I-16]						90%			90%		90%	90%		
CCS(=O)(=O)c1c(-c2nc3cc(C(F)(F)F)nnc3n2C)nc(C2CC2)n1C [Example I-17]						100%		100%			100%	90%		
